# Measured values from ChEMBL document CHEMBL1136223, “Reversed hydroxamate-bearing thermolysin inhibitors mimic a high-energy intermediate along the enzyme-catalyzed proteolytic reaction pathway” (Bioorg Med Chem Lett, 2003).
# Assays:
# [1] = target: T1, Thermolysin (Bacillus thermoproteolyticus, UniProt P00800); assay: Inhibitory activity against thermolysin
# T1 sequence (P00800 whole entry): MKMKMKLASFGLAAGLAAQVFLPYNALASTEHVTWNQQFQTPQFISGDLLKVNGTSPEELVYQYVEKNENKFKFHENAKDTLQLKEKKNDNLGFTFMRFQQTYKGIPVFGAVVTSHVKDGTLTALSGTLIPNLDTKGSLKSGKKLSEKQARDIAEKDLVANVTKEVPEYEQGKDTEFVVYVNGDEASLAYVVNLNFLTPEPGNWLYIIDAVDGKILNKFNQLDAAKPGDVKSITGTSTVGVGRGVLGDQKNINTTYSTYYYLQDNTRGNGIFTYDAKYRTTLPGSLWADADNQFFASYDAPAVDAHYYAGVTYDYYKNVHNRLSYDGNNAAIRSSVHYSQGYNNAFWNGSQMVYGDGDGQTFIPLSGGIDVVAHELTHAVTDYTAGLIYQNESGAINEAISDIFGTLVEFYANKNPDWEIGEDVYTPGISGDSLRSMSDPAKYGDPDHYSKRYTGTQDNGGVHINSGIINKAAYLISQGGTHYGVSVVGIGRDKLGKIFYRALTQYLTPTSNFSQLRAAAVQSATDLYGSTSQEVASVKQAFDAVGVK
# [2] = target: T1, Thermolysin; assay: Inhibitory activity against thermolysin using N-[3-(2-furyl)acryloyl]-Gly-l-leucineamide (FA-Gly-l-Leu-NH2) as substrate
# [3] = Ratio of Km to that of Kcat against thermolysin
Ki [1] [µM],Ki [2] [µM],Km/Kcat [3] [µM/s],Compound
20.6,52.8,196,CC(C)C[C@H](CN(O)C=O)C(N)=O
10.9,14.7,165,CC(C)C[C@H](CN(O)C=O)C(=O)NC(=O)CN
16.6,383,3200,CC(C)C[C@H](CN(O)C=O)C(=O)NC(=O)[C@@H](C)N
2.4,1.84,20,CC(C)C[C@H](CN(O)C=O)C(=O)NC(=O)[C@@H](N)Cc1ccccc1
10.6,2.49,13.6,CC(C)C[C@H](CN(O)C=O)C(=O)NC(=O)[C@H](C)N
